# Active and inactive are the calls of the source. The calls are words filed in the database; no cut-off is given here.
# Assays:
# RAW264.7 [1] = experiment: Inhibition of LPS-induced iNOS protein expression in mouse RAW264.7 cells at 30 uM incubated for 24 hrs by Western blot analysis; format: functional, cell-based
# RAW264.7 [2] = experiment: Inhibition of LPS-induced COX2 protein expression in mouse RAW264.7 cells at 1 to 30 uM incubated for 24 hrs by Western blot analysis; format: functional, cell-based; settings: dose 1-30 µM
# RAW264.7 [3] = experiment: Inhibition of LPS-induced NO production in mouse RAW264.7 cells at 30 uM relative to control; format: functional
# RAW264.7 [4] = experiment: Inhibition of LPS-induced COX2 protein expression in mouse RAW264.7 cells at 0.1 to 30 uM incubated for 24 hrs by Western blot analysis; format: functional, cell-based; settings: dose 0.1-30 µM
SMILES,inhibition (RAW264.7 [1]),inhibition (RAW264.7 [2]),inhibition at 30 µM (RAW264.7 [3]) [%],inhibition (RAW264.7 [4])
COc1cc(/C=C/C(=O)O[C@H]2C[C@@]3(C)[C@@H](C[C@H]2O)C(=O)C=C2[C@@H]3CC[C@]3(C)[C@@H]([C@@](C)(O)[C@H](O)C[C@@H](C)C(C)(C)O)CC[C@@]23O)cc(OC)c1O,inactive,Active,12.7,
COc1cc(/C=C/C(=O)O[C@@H]2C[C@H]3C(=O)C=C4[C@H](CC[C@]5(C)[C@@H]([C@@](C)(O)[C@H](O)C[C@@H](C)C(C)(C)O)CC[C@@]45O)[C@@]3(C)C[C@@H]2O)cc(OC)c1O,inactive,inactive,14.7,
C[C@H](C[C@@H](O)[C@](C)(O)[C@H]1CC[C@@]2(O)C3=CC(=O)[C@@H]4C[C@@H](O)[C@@H](O)C[C@]4(C)[C@H]3CC[C@]12C)C(C)(C)O,,,,inactive
COC(=O)/C=C/c1cc(OC)c(O)c(OC)c1,,,,inactive
